Activity calls are given as the source filed them. Rule as the data show it, for most assays here: actives have a measured Kd and inactives only a lower limit.
Columns and labels:
[1] = target: Tyrosine-protein kinase ABL2 (Homo sapiens, UniProt P42684)
[2] = target: Atypical kinase COQ8A, mitochondrial (Homo sapiens, UniProt Q8NI60)
[3] = target: Tyrosine-protein kinase Fyn (Homo sapiens, UniProt P06241)
[4] = target: T1, Interleukin-1 receptor-associated kinase 3 (Homo sapiens, UniProt Q9Y616)
T1 sequence (Q9Y616 whole entry): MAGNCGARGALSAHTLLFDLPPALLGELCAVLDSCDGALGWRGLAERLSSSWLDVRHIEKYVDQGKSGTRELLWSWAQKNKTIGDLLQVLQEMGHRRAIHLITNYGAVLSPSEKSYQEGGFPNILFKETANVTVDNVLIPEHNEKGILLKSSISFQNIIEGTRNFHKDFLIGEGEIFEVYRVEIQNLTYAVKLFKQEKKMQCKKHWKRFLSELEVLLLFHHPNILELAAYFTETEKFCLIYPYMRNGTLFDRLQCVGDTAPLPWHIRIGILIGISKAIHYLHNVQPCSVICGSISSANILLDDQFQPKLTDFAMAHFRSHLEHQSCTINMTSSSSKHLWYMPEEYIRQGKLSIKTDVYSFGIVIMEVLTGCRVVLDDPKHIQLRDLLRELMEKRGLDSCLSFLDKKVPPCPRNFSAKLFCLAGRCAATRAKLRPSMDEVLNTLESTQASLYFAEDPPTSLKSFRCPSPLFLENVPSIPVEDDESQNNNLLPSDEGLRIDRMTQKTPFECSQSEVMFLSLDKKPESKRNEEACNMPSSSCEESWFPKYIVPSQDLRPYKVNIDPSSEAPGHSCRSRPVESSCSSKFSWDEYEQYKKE

[5] = target: T2, Mitogen-activated protein kinase kinase kinase 5 (Homo sapiens, UniProt Q99683)
T2 sequence (Q99683 whole entry): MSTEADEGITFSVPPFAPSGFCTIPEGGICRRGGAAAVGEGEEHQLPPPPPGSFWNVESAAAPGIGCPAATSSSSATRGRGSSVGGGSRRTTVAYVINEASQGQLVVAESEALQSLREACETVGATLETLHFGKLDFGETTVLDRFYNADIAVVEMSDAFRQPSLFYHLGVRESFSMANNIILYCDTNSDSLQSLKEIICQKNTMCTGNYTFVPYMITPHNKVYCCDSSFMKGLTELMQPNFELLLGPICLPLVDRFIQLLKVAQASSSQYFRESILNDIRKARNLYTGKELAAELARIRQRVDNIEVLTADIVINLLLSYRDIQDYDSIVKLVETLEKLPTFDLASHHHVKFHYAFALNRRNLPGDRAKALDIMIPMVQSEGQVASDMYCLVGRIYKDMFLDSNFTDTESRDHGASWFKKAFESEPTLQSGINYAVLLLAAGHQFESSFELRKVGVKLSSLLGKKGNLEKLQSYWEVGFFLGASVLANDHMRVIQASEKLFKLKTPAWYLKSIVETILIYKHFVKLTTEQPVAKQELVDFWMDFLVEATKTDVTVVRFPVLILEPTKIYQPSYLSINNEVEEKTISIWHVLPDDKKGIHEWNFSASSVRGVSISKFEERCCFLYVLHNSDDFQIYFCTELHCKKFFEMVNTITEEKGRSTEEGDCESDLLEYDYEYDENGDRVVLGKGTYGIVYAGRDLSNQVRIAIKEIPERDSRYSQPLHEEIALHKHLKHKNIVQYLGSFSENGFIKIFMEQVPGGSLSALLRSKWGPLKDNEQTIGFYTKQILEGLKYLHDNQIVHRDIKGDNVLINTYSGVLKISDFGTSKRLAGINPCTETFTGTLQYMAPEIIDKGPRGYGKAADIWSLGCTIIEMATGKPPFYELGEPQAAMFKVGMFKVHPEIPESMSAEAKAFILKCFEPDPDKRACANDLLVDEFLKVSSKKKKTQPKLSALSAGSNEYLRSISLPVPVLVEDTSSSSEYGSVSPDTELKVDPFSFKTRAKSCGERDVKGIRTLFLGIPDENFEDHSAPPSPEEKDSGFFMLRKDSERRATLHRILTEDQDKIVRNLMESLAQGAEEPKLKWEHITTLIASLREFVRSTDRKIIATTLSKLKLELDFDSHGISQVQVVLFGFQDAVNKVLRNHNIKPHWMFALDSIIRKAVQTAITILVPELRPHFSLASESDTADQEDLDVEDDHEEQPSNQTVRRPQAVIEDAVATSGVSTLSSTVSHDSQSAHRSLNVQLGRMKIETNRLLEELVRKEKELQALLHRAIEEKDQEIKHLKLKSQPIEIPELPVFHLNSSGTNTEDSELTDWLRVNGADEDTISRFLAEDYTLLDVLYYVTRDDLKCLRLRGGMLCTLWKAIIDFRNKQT
Also: in the data inactive means no Kd found up to 30 µM.

Tyrosine-protein kinase ABL2, sequence (P42684 whole entry): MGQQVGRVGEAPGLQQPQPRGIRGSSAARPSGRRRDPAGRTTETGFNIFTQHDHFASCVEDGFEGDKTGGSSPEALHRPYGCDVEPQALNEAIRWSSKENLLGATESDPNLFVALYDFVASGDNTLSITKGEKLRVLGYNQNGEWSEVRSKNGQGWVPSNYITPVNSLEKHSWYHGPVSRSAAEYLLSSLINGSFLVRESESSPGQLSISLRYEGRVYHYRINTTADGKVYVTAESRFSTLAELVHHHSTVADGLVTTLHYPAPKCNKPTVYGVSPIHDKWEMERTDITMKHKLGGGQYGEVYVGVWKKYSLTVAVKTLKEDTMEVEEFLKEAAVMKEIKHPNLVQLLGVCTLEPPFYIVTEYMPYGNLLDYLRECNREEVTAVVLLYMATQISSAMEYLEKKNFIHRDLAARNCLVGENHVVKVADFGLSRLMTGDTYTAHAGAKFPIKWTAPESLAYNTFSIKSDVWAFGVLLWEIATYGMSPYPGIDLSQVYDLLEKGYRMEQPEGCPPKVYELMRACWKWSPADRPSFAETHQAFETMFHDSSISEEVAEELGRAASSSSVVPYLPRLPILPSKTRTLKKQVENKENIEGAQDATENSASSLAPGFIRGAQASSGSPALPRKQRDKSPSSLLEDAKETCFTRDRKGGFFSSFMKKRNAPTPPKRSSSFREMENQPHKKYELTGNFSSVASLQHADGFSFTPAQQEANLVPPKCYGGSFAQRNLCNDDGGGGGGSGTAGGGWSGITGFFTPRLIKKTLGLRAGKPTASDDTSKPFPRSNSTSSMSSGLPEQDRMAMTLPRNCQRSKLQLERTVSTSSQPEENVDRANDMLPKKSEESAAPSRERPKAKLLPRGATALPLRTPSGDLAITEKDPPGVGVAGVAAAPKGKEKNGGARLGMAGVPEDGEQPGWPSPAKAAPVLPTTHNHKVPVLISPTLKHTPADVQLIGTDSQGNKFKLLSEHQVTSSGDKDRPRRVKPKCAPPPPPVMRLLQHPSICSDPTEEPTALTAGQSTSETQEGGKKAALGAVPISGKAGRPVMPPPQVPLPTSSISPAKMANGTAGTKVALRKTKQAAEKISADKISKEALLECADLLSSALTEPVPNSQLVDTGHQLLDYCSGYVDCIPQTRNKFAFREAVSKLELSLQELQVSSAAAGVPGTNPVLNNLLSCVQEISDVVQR
Atypical kinase COQ8A, mitochondrial, sequence (Q8NI60 whole entry): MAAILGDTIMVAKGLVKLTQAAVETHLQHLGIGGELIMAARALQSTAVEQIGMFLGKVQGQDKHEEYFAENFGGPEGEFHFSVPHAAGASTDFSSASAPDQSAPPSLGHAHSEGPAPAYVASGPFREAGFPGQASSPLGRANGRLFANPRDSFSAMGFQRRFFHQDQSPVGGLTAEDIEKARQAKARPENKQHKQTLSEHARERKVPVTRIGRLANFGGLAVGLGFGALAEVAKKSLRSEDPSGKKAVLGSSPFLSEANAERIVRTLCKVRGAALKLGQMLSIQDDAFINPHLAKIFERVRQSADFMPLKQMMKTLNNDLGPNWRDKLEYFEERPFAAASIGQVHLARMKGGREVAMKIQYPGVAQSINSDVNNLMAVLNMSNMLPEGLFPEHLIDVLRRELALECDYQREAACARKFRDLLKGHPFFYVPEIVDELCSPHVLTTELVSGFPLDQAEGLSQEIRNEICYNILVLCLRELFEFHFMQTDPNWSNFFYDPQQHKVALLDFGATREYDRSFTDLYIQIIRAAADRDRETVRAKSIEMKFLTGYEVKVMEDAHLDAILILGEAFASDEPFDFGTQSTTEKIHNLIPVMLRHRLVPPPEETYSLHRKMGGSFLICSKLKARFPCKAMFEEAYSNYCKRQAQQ
Tyrosine-protein kinase Fyn, sequence (P06241 whole entry): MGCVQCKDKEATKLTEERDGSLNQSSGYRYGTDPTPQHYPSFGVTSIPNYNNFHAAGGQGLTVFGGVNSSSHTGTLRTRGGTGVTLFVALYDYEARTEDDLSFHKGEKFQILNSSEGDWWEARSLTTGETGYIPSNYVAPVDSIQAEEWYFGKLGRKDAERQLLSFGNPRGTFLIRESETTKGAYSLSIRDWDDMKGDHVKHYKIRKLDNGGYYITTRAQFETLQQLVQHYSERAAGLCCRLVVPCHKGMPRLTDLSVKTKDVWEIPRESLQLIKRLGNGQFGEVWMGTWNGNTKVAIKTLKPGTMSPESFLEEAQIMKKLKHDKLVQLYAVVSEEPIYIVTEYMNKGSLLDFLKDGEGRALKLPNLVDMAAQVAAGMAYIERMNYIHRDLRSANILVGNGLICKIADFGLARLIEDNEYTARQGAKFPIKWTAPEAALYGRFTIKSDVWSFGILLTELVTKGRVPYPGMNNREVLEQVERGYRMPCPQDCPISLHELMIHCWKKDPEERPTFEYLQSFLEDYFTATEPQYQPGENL

Row | Compound | Kd [1] | Kd [2] | Kd [3] | Kd [4] | Kd [5]
1 | COc1cc2c(Nc3ccc(Cl)c(Cl)c3F)ncnc2cc1OC[C@@H]1C[C@@H]2CN(C)C[C@@H]2C1 [TESEVATINIB] | 0.628 µM (active) | > 30 µM (inactive) | > 30 µM (inactive) | > 30 µM (inactive) | > 30 µM (inactive)
2 | C[C@@H](NC(=O)c1ncnc(N)c1Cl)c1ncc(C(=O)Nc2cc(C(F)(F)F)c(Cl)cn2)s1 [TOVORAFENIB] | 0.099 µM (active) | > 30 µM (inactive) | > 30 µM (inactive) | > 30 µM (inactive) | > 30 µM (inactive)
3 | Cc1cc(Nc2ncnc3ccc(NC4=NC(C)(C)CO4)cc23)ccc1Oc1ccn2ncnc2c1 [TUCATINIB] | > 30 µM (inactive) | > 30 µM (inactive) | > 30 µM (inactive) | > 30 µM (inactive) | > 30 µM (inactive)
4 | Cn1ncc(Cl)c1-c1cc(C(=O)N[C@H](CN)Cc2ccc(F)c(F)c2)oc1Cl [UPROSERTIB] | > 30 µM (inactive) | > 30 µM (inactive) | > 30 µM (inactive) | > 30 µM (inactive) | > 30 µM (inactive)
5 | CC(C)c1cc(CNc2nc(Nc3cc(C4CC4)[nH]n3)cc(N3CCN(C)CC3)n2)on1 [XL-228] | 0.008 µM (active) | > 30 µM (inactive) | 0.023 µM (active) | 0.08 µM (active) | > 30 µM (inactive)
6 | C[C@@H](N)c1ccc(C(=O)Nc2ccnc3[nH]ccc23)cc1 [Y-39983] | > 30 µM (inactive) | > 30 µM (inactive) | > 30 µM (inactive) | > 30 µM (inactive) | 50.5 µM (active)

More lines, now with the values ahead:

Row | Kd [1] | Kd [2] | Kd [3] | Kd [4] | Kd [5] | Compound
7 | > 30 µM (inactive) | > 30 µM (inactive) | > 30 µM (inactive) | > 30 µM (inactive) | > 30 µM (inactive) | O=C(Cc1ccc(-c2ccc(OCCN3CCOCC3)cc2)cn1)NCc1ccccc1 [TIRBANIBULIN]
8 | > 30 µM (inactive) | > 30 µM (inactive) | > 30 µM (inactive) | > 30 µM (inactive) | > 30 µM (inactive) | O=C1NC(=O)[C@@H](c2cn3c4c(cccc24)CCC3)[C@@H]1c1c[nH]c2ccccc12 [TIVANTINIB]
9 | > 30 µM (inactive) | > 30 µM (inactive) | > 30 µM (inactive) | 0.286 µM (active) | > 30 µM (inactive) | CN1C/C=C/CCOc2cccc(c2)-c2ccnc(n2)Nc2cccc(c2)C1 [ZOTIRACICLIB]
